ChEMBL document CHEMBL2069291, “Orally available pyridinylpyrimidine derivatives as novel RANKL-induced osteoclastogenesis inhibitors” (Bioorg Med Chem Lett, 2012)

Tests used:
[1] = AUC (0 to infinity) in female C57BL/6 mouse at 3 mg/kg, po administered as single dose; type: ADME, organism-based; design: dose 3 mg/kg, route oral, time infinity; conditions: plasma
[2] = AUC (0 to infinity) in ovariectomized Wistar rat at 3 mg/kg, po administered as single dose; type: ADME, organism-based; design: dose 3 mg/kg, route oral, time infinity; conditions: female, plasma
[3] = Permeability of the compound by PAMPA assay; type: ADME; conditions: read-out: permeability
[4] = Cmax in female C57BL/6 mouse at 3 mg/kg, po administered as single dose; type: ADME, organism-based; design: dose 3 mg/kg, route oral; conditions: in vivo
[5] = Solubility in phosphate buffer at pH 6.8; type: physicochemical
[6] = Cmax in ovariectomized Wistar rat at 3 mg/kg, po administered as single dose; type: ADME, organism-based; design: dose 3 mg/kg, route oral; conditions: female, in vivo
[7] = AUC (0 to infinity) in female C57BL/6 mouse at 1 mg/kg, po administered as single dose; conditions: plasma
[8] = Cmax in female C57BL/6 mouse at 1 mg/kg, po administered as single dose; conditions: in vivo

AUC(0-inf) [1] [ng·h/mL] | AUC(0-inf) [2] [ng·h/mL] | Papp [3] [×10⁻⁶ cm/s] | Cmax [4] [ng/mL] | solubility [5] [µg/mL] | Cmax [6] [ng/mL] | AUC(0-inf) [7] [ng·h/mL] | Cmax [8] [ng/mL] | SMILES
240 | 151 | > 30 | 130 | > 25 | 49 |  |  | COc1cnc(-c2ccccn2)nc1NCc1ccccc1F
188 | 542 | > 30 | 98 | > 25 | 135 |  |  | COc1cnc(-c2ccccn2)nc1NCc1c(F)cc(F)cc1F
1020 | 943 | > 30 | 599 | > 25 | 156 |  |  | COc1cnc(-c2ccccn2)nc1NCc1ccc(F)cc1C(F)(F)F
 |  |  |  |  |  | 15 | 7 | COc1cnc(-c2ccccn2)nc1N1CCCC1
